Here are results for 25 molecules from PubChem BioAssay (NCI).

What all share (assay): NCI anticancer screen, dose series, 48 h
Assay [1] concerns 786-0 renal.
Assay [2] relates to CAKI-1 renal.
Assay [3] has as its system HCT-116 colon.
The subject of assay [4] is K-562 leukemia.
For assay [5], the system named is NCI-H522 lung.
The subject of assay [6] is SK-MEL-28 melanoma.
In assay [7] the test system is SNB-19 CNS.
Assay [8] has as its system UACC-62 melanoma.
For assay [9], the system named is NCI-H460 lung.
In assay [10] the test system is OVCAR-4 ovarian.

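Cultured in 96-well plates, cells were exposed to test compound for 48 hours across five concentrations. Abbreviation: GI50, concentration required for 50% inhibition of growth. Definition used: TGI = concentration required for complete inhibition of growth.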 Some results are limits rather than exact numbers.

As to `CC1(C)OC2C(=O)C=C(COCc3ccccc3)C2O1` (stereo not given), the TGI was above 100 µM in assay [1]; above 100 µM in assay [2]; 54.3 µM in assay [3]; above 100 µM in assay [4]; 38 µM in assay [5]; 95.4 µM in assay [6]. Besides, the TGI is above 100 µM in assay [7] and 28.6 µM in assay [8].
In the case of `Cc1cccc(NC(=O)c2sc3nc4c(cc3c2N)CN(Cc2ccccc2)CC4)c1C`, the GI50 in [1] was 0.197 µM; in [3], 0.227 µM; in assay [4], 0.104 µM; in assay [9], 0.196 µM; in assay [5], 0.138 µM; in assay [10], 0.971 µM. Moreover, the GI50 is 4.06 µM in [6], 0.283 µM in [7] and 0.274 µM in assay [8]. The TGI in [1] was 28.5 µM; in assay [3] it was above 50 µM; in [4], above 50 µM; in assay [9], above 50 µM; in assay [5] it was above 50 µM; in assay [10], 39 µM. The TGI in assay [6], in assay [7] and in [8] was above 50 µM in each case.
With `CN(C)CC1CCCC1=O` (stereo not given), the TGI in assay [1] stood at 16 µM; in assay [2], 0.373 µM; in assay [3], 2.78 µM; in assay [4] it was 0.549 µM; in [9], 34.6 µM; in [10], 5.58 µM. For the same molecule, the values for the TGI in [6], in assay [7] and in assay [8] were 6.48 µM, 50 µM and 11.2 µM, respectively.
For the molecule `CCCCCCCCCCCCCP(=O)(O)NCC(N)=O`, the TGI is above 100 µM in [1]; above 100 µM in assay [3]; above 100 µM in assay [9]; 86.2 µM in [5]; above 100 µM in assay [10]; above 100 µM in assay [6]. The TGI in [7] and in assay [8] was above 100 µM in each case.
For the molecule `O=C(NC1CCCC1=O)c1ccccc1` (stereo not given), the TGI in [1], in assay [2], in [3], in [4], in [9] and in [10] was above 100 µM in each case. For the same molecule, the TGI in assay [6], in [7] and in assay [8] was above 100 µM in each case.
Consider `Cc1cc(N(CCC#N)CCC#N)ccc1/C=C1/N=C(c2ccccc2)N(N)C1=O`, for which the TGI is above 100 µM in assay [1]; above 100 µM in assay [2]; above 100 µM in assay [3]; above 100 µM in assay [4]; 92.1 µM in [5]; above 100 µM in [10]. Besides, the TGI in assay [6], in assay [7] and in assay [8] was above 100 µM in each case.
Regarding `N#Cc1ccc(N=Cc2c([O-])ccc3ccccc23)cc1.[C-]#[O+].[C-]#[O+].[Ir]`, the GI50 in assay [1] is 14.3 µM; in assay [2], 2.92 µM; in assay [3], 13.2 µM; in assay [4], 8.99 µM; in assay [5], 1.13 µM; in assay [10] it was 3.85 µM. Also, the GI50 in assay [6] was 10.4 µM; in [7], 18.4 µM; in assay [8], 12.2 µM. Further, the TGI in assay [1] stood at 28 µM; in [2], 6.26 µM; in [3], 26 µM; in [4], 28.9 µM; in assay [5] it was 2.45 µM; in assay [10], 17.7 µM. The TGI stood at 22.1 µM in assay [6], 33.2 µM in assay [7] and 24.6 µM in assay [8].
Consider `CN(C)CCC(/C=C/c1ccccc1)=N\Nc1ccc(Cl)cc1Cl`, for which the TGI amounted to 26.1 µM in assay [1]; 28.8 µM in [3]; 28.7 µM in assay [4]; 28.1 µM in [9]; 30.6 µM in assay [5]; 29.7 µM in assay [10]. For the same molecule, the TGI in assay [6] turned out to be 27.3 µM; in assay [7], 29.4 µM; in assay [8], 21.4 µM.
As for `COC1O[C@@H]2C[C@H]3C(C)(C)CCC[C@]3(C)C3=CCCC1[C@@]32C` (stereo not given in full), the GI50 in assay [1], in assay [3], in [4], in [9], in assay [5] and in assay [10] was above 100 µM each time. Moreover, the GI50 in [6], in assay [7] and in [8] was above 100 µM throughout. Also, the TGI in assay [1], in assay [3], in [4], in assay [9], in assay [5] and in assay [10] was above 100 µM each time. Moreover, the TGI in [6], in assay [7] and in assay [8] was above 100 µM in each case.
As for `CN1CCN(Cc2ccc(NC(=O)c3[nH]ncc3Nc3ncnc4sc5c(c34)CCCC5)cc2)CC1`, the GI50 in assay [1] was 0.365 µM; in assay [4] it was 0.198 µM; in assay [9] it was 0.136 µM; in assay [5], 0.241 µM; in [10] it was 0.327 µM; in [6], 0.512 µM. In addition, the results for the GI50 in [7] and in assay [8] were 0.282 µM and 0.55 µM, respectively. In addition, the TGI came to 1.9 µM in assay [1]; 1.14 µM in assay [4]; 1.05 µM in assay [9]; 1.08 µM in [5]; 1.84 µM in assay [10]; 2.08 µM in assay [6]. For the same molecule, the results for the TGI in [7] and in assay [8] were 1.48 µM and 1.93 µM, respectively.
Regarding `COC(CN1C=C(Sc2ccccc2)CC1)OC`, the TGI in assay [1] is above 100 µM; in assay [2], above 100 µM; in [3], above 100 µM; in assay [4], 53.7 µM; in assay [9], above 100 µM; in assay [10] it was above 100 µM. Further, the TGI in [6], in assay [7] and in assay [8] was above 100 µM in each case.
`c1ccc2c3c([nH]c2c1)C1CCCN1CC3` (stereo not given): the TGI in assay [1], in assay [2], in [4], in [9], in assay [5] and in [10] was above 10 µM throughout. For the same molecule, the TGI in assay [6] and in assay [7] was above 10 µM each time.
With `CC1(C)C2CCC13CS(=O)(=O)N1O[C@]13C(=O)O2` (stereo not given in full), the TGI in assay [1], in [3], in [4], in [9], in assay [5] and in [10] was above 100 µM each time. The TGI in [6] and in assay [7] was above 100 µM throughout.
Take `COC(=O)CC1NC(=O)C1C1(C)OCCO1` (stereo not given): the TGI in [1], in [3], in [9], in assay [10], in assay [6] and in assay [7] was above 100 µM in each case. This molecule also returned a TGI in [8] above 100 µM.
As to `CC1(C)CCC[C@]2(C)[C@@H](C=O)C(C=O)=CC[C@@H]12`, the TGI was above 100 µM in [1]; 23.1 µM in assay [2]; 83.4 µM in assay [3]; 37.4 µM in [5]; 44.9 µM in assay [10]; above 100 µM in assay [6]. Moreover, the TGI in [7] was 77.4 µM; in [8], 34.7 µM.
Take `Cc1nc2ccccc2c(/C=C/c2ccc(Br)cc2)c1C(=O)/C=C/c1ccccc1`: the GI50 was 1.64 µM in assay [1]; 1.26 µM in assay [2]; 0.601 µM in assay [3]; 1.42 µM in [5]; 1.69 µM in [10]; 1.89 µM in assay [6]. The GI50 in [7] is 1.62 µM; in assay [8], 1.54 µM. Besides, the TGI in assay [1] turned out to be 3.18 µM; in assay [2], 2.62 µM; in assay [3], 2.28 µM; in [5], 3.04 µM; in [10], 4.49 µM; in assay [6], 3.4 µM. Also, the TGI in assay [7] came to 3.05 µM; in [8], 3.01 µM.
As to `COC12c3ccccc3-c3ccccc3C1[C@H]1C(=O)OC(=O)[C@H]12` (stereo not given in full), the TGI in [1], in assay [2], in [4], in assay [9], in assay [5] and in assay [10] was above 10 µM in each case. Also, the TGI in [6] and in assay [7] was above 10 µM in each case.
In the case of `C/C=C(\C)c1cc(O)c(C)c2c1Oc1cc(O)c(Cl)c(C)c1C(=O)O2`, the TGI in assay [1] was 49.2 µM; in [2] it was above 100 µM; in [9], 39.7 µM; in assay [5] it was 51.3 µM; in assay [10], 34.5 µM; in [6] it was 72.2 µM. The molecule also returned a TGI in assay [7] of 31.6 µM.
With `COc1cc(-c2cc(-c3cc([N+](=O)[O-])c(/C=N/NC(=O)c4ccncc4)o3)ccc2OC)ccc1C`, the TGI in assay [1], in [2], in assay [4], in assay [5], in assay [10] and in assay [6] was above 100 µM each time. For the same molecule, the TGI in assay [7] and in [8] was above 100 µM in each case.
Take `COC(=O)c1nc(-c2ccccc2)oc1S(=O)(=O)n1nc(C)cc1N`: the GI50 in assay [1] is 12.5 µM; in [3] it was 4.73 µM; in assay [4], 2.13 µM; in assay [9] it was 17.6 µM; in assay [5], 2.06 µM; in assay [10], 16.2 µM. Further, the GI50 in assay [6] is 14.7 µM; in assay [7], 15.6 µM; in assay [8], 13.7 µM. In addition, the TGI in [1] is 25.6 µM; in assay [3], 17.6 µM; in assay [4], 6.98 µM; in assay [9] it was 36.3 µM; in [5], 4.06 µM; in assay [10] it was 36 µM. In addition, the TGI was 29.9 µM in [6], 34.3 µM in assay [7] and 28.1 µM in assay [8].
In the case of `COCCOCOc1ccc(OCOCCOC)c2c1C(=O)c1ccccc1C2=O`, the TGI in [1] is above 100 µM; in assay [2] it was above 93 µM; in [3], above 85.4 µM; in assay [4] it was above 100 µM; in assay [9] it was above 100 µM; in assay [10] it was above 100 µM. For the same molecule, the TGI in [6], in assay [7] and in [8] was above 100 µM in each case.
For the molecule `CCN(CCO)CC(C)Nc1ccc([N+](=O)[O-])c2sc3ccccc3c(=O)c12` (stereo not given), the GI50 in assay [1] is 1.37 µM; in assay [2], 0.304 µM; in assay [3] it was 0.996 µM; in [4], 1.44 µM; in assay [9], 0.379 µM; in assay [10], 3.32 µM. Moreover, the figures for the GI50 in assay [6], in assay [7] and in assay [8] were 2.68 µM, 2.34 µM and 1.63 µM, respectively. Also, the TGI was 3.97 µM in assay [1]; 1.09 µM in assay [2]; 2.69 µM in assay [3]; 6.71 µM in assay [4]; 2.27 µM in assay [9]; 15.7 µM in assay [10]. The values for the TGI in assay [6], in [7] and in assay [8] were 10.3 µM, 19 µM and 12.8 µM, respectively.
Consider `Cc1cc(N(CCC#N)CCC#N)ccc1/C=C1N=C(/C=C\c2ccccc2)N(c2ccc(Cl)cc2)C\1=O`, for which the TGI in assay [1], in assay [2], in assay [3], in [4], in [9] and in assay [5] was above 100 µM throughout. Besides, the TGI in assay [10], in assay [6] and in assay [7] was above 100 µM each time.
In the case of `Cn1c2ccccc2n2c(=O)c3c(c(C#N)c12)CCCC3`, the TGI in assay [1], in [2], in assay [3], in assay [4], in assay [9] and in assay [10] was above 100 µM each time. Also, the TGI in assay [6] and in [7] was above 100 µM each time.
For `CC1(C)OCC(C(O)C2OC(C)(C)OC2/C=N\O)O1` (stereo not given), the TGI in [1], in assay [3], in [4], in assay [9], in [5] and in assay [6] was above 100 µM throughout. This molecule registered a TGI in assay [7] above 100 µM.
